Assay results taken from patent US12139520B2 (priority 2020, dated 2024).
Numbered stars: 1 amine (or outer) side, 2 acyl side, 3 side chain; on linkers, the order of the positions; unused ones are H or OH. Bridge positions count the residues as written; N and C are the ends. Square brackets hold non-standard residues; d marks the D form. Peptide text beside a SMILES is read from it. * marks the point of attachment. C20 diacid = O=C(O)CCCCCCCCCCCCCCCCCCC(=O)*; γGlu = O=C(O)[C@H](CCC(=O)[*:2])N[*:1]; Hyp = O=C(O)[C@@H]1C[C@@H](O)CN1

Experiments:
hAMY3 receptor = target: T1, hAMY3 receptor (Homo sapiens, UniProt O60896+P30988); experiment: cAMP assay for in vitro receptor activation, hAMY3-R; assay type: cell-based; settings: cAMP assay, hAMY3 receptor; read-out: hAMY3R EC50
T1 sequence (P30988 25-474): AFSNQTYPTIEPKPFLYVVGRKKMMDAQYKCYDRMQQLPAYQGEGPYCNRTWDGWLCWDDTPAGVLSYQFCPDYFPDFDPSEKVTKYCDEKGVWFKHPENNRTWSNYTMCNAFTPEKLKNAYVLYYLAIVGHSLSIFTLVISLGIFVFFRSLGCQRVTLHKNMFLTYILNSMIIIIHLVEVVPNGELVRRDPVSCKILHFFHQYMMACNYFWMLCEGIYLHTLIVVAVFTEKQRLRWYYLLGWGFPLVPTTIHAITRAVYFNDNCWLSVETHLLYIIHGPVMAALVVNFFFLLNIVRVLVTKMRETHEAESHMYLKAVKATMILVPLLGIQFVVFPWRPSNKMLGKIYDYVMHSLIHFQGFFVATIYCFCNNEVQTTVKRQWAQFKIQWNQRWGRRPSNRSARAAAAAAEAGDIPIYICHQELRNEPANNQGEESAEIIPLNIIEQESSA
T1 sequence (O60896 24-148 partner): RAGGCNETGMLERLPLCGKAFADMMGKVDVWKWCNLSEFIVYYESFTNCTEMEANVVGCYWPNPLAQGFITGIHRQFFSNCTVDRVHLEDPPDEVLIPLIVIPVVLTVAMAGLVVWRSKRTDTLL
Method in brief: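 Read-out is TR-FRET cAMP signal, recorded one hour after reagent addition, following 30 min room-temperature stimulation of stable hAMY3 cells with graded compound doses in casein/IBMX (0.5 mM) buffer.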

hAM1 receptor = hAM1 receptor (Homo sapiens, UniProt O60895+Q16602); experiment: cAMP assay for in vitro receptor activation, hAM1-R; assay type: cell-based; settings: cAMP assay, hAM1 receptor; read-out: hAM1R EC50
Protocol: General Protocols for cAMP Assays for Measuring In Vitro Receptor Activation
Cells stably overexpressing the hAM1 receptor were obtained from Ogeda (now Astellas Pharma), sub-cloned and a monoclonal cell-line with an appropriate assay-window was expanded, aliquoted and frozen. An aliquot was thawed and plated in DPBS with 0.05% casein and 0.5 mM IBMX as 8000 cells/well in a 384-well format.

[1] = Physical stability of peptide analogues (Thioflavin T fibrillation); assay type: physicochemical; settings: maximum ThT signal normalized between hAMY maximum and buffer background; 40° C., shaking, four days; pH 7 per table title
Method in brief: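 ThT fluorescence (450 nm excitation, 480 nm emission; 4 μM dye) was read every 10 min over four days at 40° C under 700 rpm shaking stress, after 1 h in pH 4 acetate or pH 7 phosphate (50 mM). Peak smoothed signal expressed as percent, scaled between buffer background and hAMY maximum.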

Sequence of hAM1 receptor (Q16602 23-461): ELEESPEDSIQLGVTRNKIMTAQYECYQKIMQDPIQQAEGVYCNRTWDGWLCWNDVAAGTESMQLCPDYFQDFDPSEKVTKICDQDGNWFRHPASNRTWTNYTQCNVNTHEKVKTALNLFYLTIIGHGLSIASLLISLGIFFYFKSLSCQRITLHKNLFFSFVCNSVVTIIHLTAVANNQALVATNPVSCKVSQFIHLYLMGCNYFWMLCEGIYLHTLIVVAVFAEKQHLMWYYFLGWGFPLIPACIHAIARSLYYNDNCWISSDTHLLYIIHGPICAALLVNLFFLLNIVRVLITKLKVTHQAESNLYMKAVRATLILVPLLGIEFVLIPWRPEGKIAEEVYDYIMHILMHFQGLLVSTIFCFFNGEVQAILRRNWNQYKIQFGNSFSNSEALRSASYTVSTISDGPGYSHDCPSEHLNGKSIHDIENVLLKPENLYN
Sequence of hAM1 receptor (O60895 43-175 partner): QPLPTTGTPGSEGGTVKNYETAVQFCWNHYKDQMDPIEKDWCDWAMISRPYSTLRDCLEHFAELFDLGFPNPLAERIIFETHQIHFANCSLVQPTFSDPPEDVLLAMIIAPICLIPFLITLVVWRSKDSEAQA

EC50 (hAMY3 receptor)	EC50 (hAM1 receptor)	Max ThT signal (%) [1]	SMILES
–	> 5000 nM	–	CC[C@H](C)[C@H](NC(=O)[C@H](CCCCN)NC(=O)[C@H](CO)NC(=O)[C@H](CCCNC(=N)N)NC(=O)[C@@H]1CCCN1C(=O)[C@H](C)NC(=O)[C@@H](NC(=O)[C@H](CC(N)=O)NC(=O)[C@H](CC(=O)O)NC(=O)[C@H](CCCCN)NC(=O)[C@H](CC(=O)O)NC(=O)[C@H](CCCCN)NC(=O)[C@H](CC(=O)O)NC(=O)[C@@H](NC(=O)[C@H](Cc1ccccc1)NC(=O)[C@H](CCC(N)=O)NC(=O)[C@@H](NC(=O)[C@H](CC(C)C)NC(=O)[C@H](Cc1ccccc1)NC(=O)[C@H](CC(N)=O)NC(=O)[C@H](C)NC(=O)[C@H](CC(C)C)NC(=O)[C@H](CCCNC(=N)N)NC(=O)[C@H](CCC(N)=O)NC(=O)[C@@H](NC(=O)[C@H](C)NC(=O)[C@@H]1CSSC[C@H](NC(=O)[C@@H](N)CCCCN)C(=O)N[C@@H](CC(N)=O)C(=O)N[C@@H]([C@@H](C)O)C(=O)N[C@@H](C)C(=O)N[C@@H]([C@@H](C)O)C(=O)N1)[C@@H](C)O)C(C)C)[C@@H](C)O)C(C)C)C(=O)N[C@@H](CO)C(=O)N1CCC[C@H]1C(=O)N[C@@H](CCC(N)=O)C(=O)NCC(=O)N[C@@H](Cc1ccc(O)cc1)C(N)=O [compound 234] (H-KCNTATCATQRLANFLVQFTDKDKDNVAPRSKISPQGY-NH2; disulfide 2-7; N-terminus assumed)
0.022 nM	–	1.700%	CC[C@H](C)[C@H](NC(=O)[C@H](CCC(N)=O)NC(=O)[C@H](Cc1c[nH]cn1)NC(=O)[C@H](C)NC(=O)[C@H](CC(C)C)NC(=O)[C@H](Cc1c[nH]c2ccccc12)NC(=O)[C@H](CCC(N)=O)NC(=O)[C@@H](NC(=O)[C@@H](NC(=O)[C@@H]1CSSC[C@H](NC(=O)CN)C(=O)N[C@@H](CCCNC(=N)N)C(=O)N[C@@H](Cc2ccccc2)C(=O)NCC(=O)N[C@@H]([C@@H](C)O)C(=O)N1)[C@@H](C)O)C(C)C)C(=O)N[C@@H](Cc1ccc(O)cc1)C(=O)N[C@@H](CCC(N)=O)C(=O)N[C@@H](Cc1ccccc1)C(=O)N[C@H](C(=O)N[C@@H](CC(=O)O)C(=O)N[C@@H](CCCCN)C(=O)N[C@@H](CC(=O)O)C(=O)N[C@@H](CCCCN)C(=O)N[C@@H](CC(=O)O)C(=O)N[C@@H](CC(N)=O)C(=O)N[C@H](C(=O)N[C@@H](C)C(=O)N1CCC[C@H]1C(=O)N[C@@H](CCCNC(=N)N)C(=O)N[C@H](C(=O)N[C@@H](CC(N)=O)C(=O)N[C@H](C(=O)N[C@@H](CO)C(=O)N1CCC[C@H]1C(=O)N[C@@H](CCC(N)=O)C(=O)NCC(=O)N[C@@H](Cc1ccc(O)cc1)C(N)=O)C(C)C)[C@@H](C)O)C(C)C)[C@@H](C)O [compound 340] (H-GCRFGTCTVQWLAHQIYQFTDKDKDNVAPRTNVSPQGY-NH2; disulfide 2-7; N-terminus assumed)
0.019 nM	–	16.800%	CC[C@H](C)[C@H](NC(=O)[C@H](CCC(N)=O)NC(=O)[C@H](Cc1c[nH]cn1)NC(=O)[C@H](C)NC(=O)[C@H](CC(C)C)NC(=O)[C@H](Cc1c[nH]c2ccccc12)NC(=O)[C@H](CCC(N)=O)NC(=O)[C@@H](NC(=O)[C@@H](NC(=O)[C@@H]1CSSC[C@H](NC(=O)CN)C(=O)N[C@@H](CCCNC(=N)N)C(=O)N[C@@H](Cc2ccccc2)C(=O)NCC(=O)N[C@@H]([C@@H](C)O)C(=O)N1)[C@@H](C)O)C(C)C)C(=O)N[C@@H](Cc1ccc(O)cc1)C(=O)N[C@@H](CCC(N)=O)C(=O)N[C@@H](Cc1ccccc1)C(=O)N[C@H](C(=O)N[C@@H](CC(=O)O)C(=O)N[C@@H](CCCCN)C(=O)N[C@@H](CC(=O)O)C(=O)N[C@@H](CCCCN)C(=O)N[C@@H](CC(=O)O)C(=O)N[C@@H](CC(N)=O)C(=O)N[C@H](C(=O)N[C@@H](C)C(=O)N1CCC[C@H]1C(=O)N[C@@H](CCCNC(=N)N)C(=O)N[C@H](C(=O)N[C@@H](CCCCN)C(=O)N[C@H](C(=O)N[C@@H](CO)C(=O)N1CCC[C@H]1C(=O)N[C@@H](CC(N)=O)C(=O)NCC(=O)N1C[C@H](O)C[C@H]1C(N)=O)[C@@H](C)CC)[C@@H](C)O)C(C)C)[C@@H](C)O [compound 337] (H-GCRFGTCTVQWLAHQIYQFTDKDKDNVAPRTKISPNG[Hyp]-NH2; disulfide 2-7; N-terminus assumed)

The remaining lines, values behind:

SMILES	EC50 (hAMY3 receptor)	EC50 (hAM1 receptor)	Max ThT signal (%) [1]
CC[C@H](C)[C@H](NC(=O)[C@H](CCC(N)=O)NC(=O)[C@H](Cc1c[nH]cn1)NC(=O)[C@H](C)NC(=O)[C@H](CC(C)C)NC(=O)[C@H](CCCNC(=N)N)NC(=O)[C@H](CCC(N)=O)NC(=O)[C@@H](NC(=O)[C@@H](NC(=O)[C@@H]1CSSC[C@H](NC(=O)[C@H](CCCCN)NC(=O)CC[C@H](NC(=O)CCCCCCCCCCCCCCCCCCC(=O)O)C(=O)O)C(=O)N[C@@H](CC(N)=O)C(=O)N[C@@H]([C@@H](C)O)C(=O)N[C@@H](C)C(=O)N[C@@H]([C@@H](C)O)C(=O)N1)[C@@H](C)O)C(C)C)C(=O)N[C@@H](C)C(=O)N[C@@H](CCC(N)=O)C(=O)N[C@@H](Cc1ccccc1)C(=O)N[C@H](C(=O)N[C@@H](CC(N)=O)C(=O)N[C@@H](CCCCN)C(=O)N[C@@H](CC(=O)O)C(=O)N[C@@H](CCCCN)C(=O)N[C@@H](CC(=O)O)C(=O)N[C@@H](CC(N)=O)C(=O)N[C@H](C(=O)N[C@@H](C)C(=O)N1CCC[C@H]1C(=O)N1CCC[C@H]1C(=O)N[C@H](C(=O)N[C@@H](CC(N)=O)C(=O)N[C@H](C(=O)NCC(=O)N[C@@H](CO)C(=O)N[C@@H](CC(N)=O)C(=O)NCC(=O)N1C[C@H](O)C[C@H]1C(N)=O)C(C)C)[C@@H](C)O)C(C)C)[C@@H](C)O [compound 95] ({C20 diacid-γGlu}-KCNTATCTVQRLAHQIAQFTNKDKDNVAPPTNVGSNG[Hyp]-NH2; disulfide 2-7)	0.016 nM	> 5000 nM	–
CC[C@H](C)[C@H](NC(=O)[C@H](C)NC(=O)CNC(=O)[C@H](Cc1ccccc1)NC(=O)[C@H](CC(N)=O)NC(=O)[C@H](CC(N)=O)NC(=O)[C@H](CO)NC(=O)[C@H](CO)NC(=O)[C@H](Cc1c[nH]cn1)NC(=O)[C@@H](NC(=O)[C@H](CC(C)C)NC(=O)[C@H](Cc1ccccc1)NC(=O)[C@H](CC(N)=O)NC(=O)[C@H](C)NC(=O)[C@H](CC(C)C)NC(=O)[C@H](CCCNC(=N)N)NC(=O)[C@H](CCC(N)=O)NC(=O)[C@@H](NC(=O)[C@H](C)NC(=O)[C@@H]1CSSC[C@H](NC(=O)[C@@H](N)CCCCN)C(=O)N[C@@H](CC(N)=O)C(=O)N[C@@H]([C@@H](C)O)C(=O)N[C@@H](C)C(=O)N[C@@H]([C@@H](C)O)C(=O)N1)[C@@H](C)O)C(C)C)C(=O)N[C@@H](CC(C)C)C(=O)N1CCC[C@H]1C(=O)N[C@@H](CO)C(=O)N[C@H](C(=O)N[C@@H](CCCCN)C(=O)N[C@H](C(=O)NCC(=O)N[C@@H](CO)C(=O)N[C@@H](CC(N)=O)C(=O)NCC(=O)N[C@@H](Cc1ccc(O)cc1)C(N)=O)[C@@H](C)CC)[C@@H](C)O [compound 207] (H-KCNTATCATQRLANFLVHSSNNFGAILPSTKIGSNGY-NH2; disulfide 2-7; N-terminus assumed)	–	> 5000 nM	–
CC[C@H](C)[C@H](NC(=O)[C@H](CCC(N)=O)NC(=O)[C@H](Cc1c[nH]cn1)NC(=O)[C@H](C)NC(=O)[C@H](CC(C)C)NC(=O)[C@H](CCCNC(=N)N)NC(=O)[C@H](CCC(N)=O)NC(=O)[C@@H](NC(=O)[C@@H](NC(=O)[C@@H]1CSSC[C@H](NC(=O)[C@H](CCCCN)NC(=O)CC[C@H](NC(=O)CCCCCCCCCCCCCCCCCCC(=O)O)C(=O)O)C(=O)N[C@@H](CC(N)=O)C(=O)N[C@@H]([C@@H](C)O)C(=O)N[C@@H](Cc2ccc(O)cc2)C(=O)N[C@@H]([C@@H](C)O)C(=O)N1)[C@@H](C)O)C(C)C)C(=O)N[C@@H](Cc1ccc(O)cc1)C(=O)N[C@@H](CCC(N)=O)C(=O)N[C@@H](Cc1ccccc1)C(=O)N[C@H](C(=O)N[C@@H](CC(=O)O)C(=O)N[C@@H](CCCCN)C(=O)N[C@@H](CC(=O)O)C(=O)N[C@@H](CCCCN)C(=O)N[C@@H](CC(=O)O)C(=O)N[C@@H](CC(N)=O)C(=O)N[C@H](C(=O)N[C@@H](C)C(=O)N1CCC[C@H]1C(=O)N1CCC[C@H]1C(=O)N[C@H](C(=O)N[C@@H](CC(N)=O)C(=O)N[C@H](C(=O)NCC(=O)N[C@@H](CO)C(=O)N[C@@H](CC(N)=O)C(=O)NCC(=O)N1C[C@H](O)C[C@H]1C(N)=O)C(C)C)[C@@H](C)O)C(C)C)[C@@H](C)O [compound 231] ({C20 diacid-γGlu}-KCNTYTCTVQRLAHQIYQFTDKDKDNVAPPTNVGSNG[Hyp]-NH2; disulfide 2-7)	–	> 5000 nM	–
